# Laboratory results from patent US20160120915A1, “METHODS FOR MANIPULATING IMMUNE RESPONSES BY ALTERING MICROBIOTA” (NEW YORK UNIVERSITY, priority 2013, published 2016).
# What was measured:
# terminal ileum [1] = test: PAT: ileal gene expression profiling by whole genome microarray, 6-week mice; format: in vivo, C57BL/6 mice; conditions: 6-week PAT vs Control, T-test p<0.05 and fold change ≧1.2 or ≦0.8
# Description: Ileal gene expression profiling of STAT, PAT, and control animal groups, was performed using the Affymetrix Genechip system (Affymetrix). Total RNA quality and quantity were determined using the Agilent 2100 Bioanalyser and Nanodrop ND-1000. Total RNA (100 ng) was used to prepare cDNA following the Affymetrix […] Express Kit labelling protocol (Affymetrix). Standardized array processing procedures recommended by Affymetrix were performed, including hybridization, fluidics processing and scanning of the Affymetrix MG-430 2.0 arrays. GeneSpring GX11 software (Agilent Technologies) was used to normalize the raw data (Affymetrix CEL files) by Robust Multichip Average algorithm (RMA).
# 1127 and 3065 reproducibly regulated genes were identified from ˜45,000 genes of the mouse genome by T-test (p<0.05) and fold change (≧1.2 or ≦0.8) in 6-week PAT (Panel A; Control vs Amoxicillin and Panel B; Control vs Tylosin), respectively (FIG. 22). DAVID analysis was performed using the regulated genes, and Gene Set Enrichment analysis (GSEA) was performed using whole gene data.
# (C, n=3), amoxicillin (A, n=3), and tylosin treated mice (T, n=3).
# terminal ileum [2] = test: PAT: ileal expression by qPCR in 6-week mice; format: in vivo, C57BL/6 mice; conditions: 6-week male mice, 3 pulses, vs control, p<0.05
# Description: Total RNA was extracted from mouse tissues using the RNeasy Mini Kit (Qiagen), according to the manufacturer's instructions. Total RNA was reverse transcribed to cDNA using the Verso™ cDNA Synthesis Kit (Thermo Scientific). To generate standards for expression analysis of each target gene, the cDNA region of interest was PCR-amplified and the PCR product was cloned into pGEM-T easy (Promega). qPCR was performed with LightCycler 480 SYBR Green I Master mix (Roche) and run in a LightCycler 480 system (Roche). Target mRNA was normalized to GAPDH mRNA as an internal control in each sample.
# C57BL/6 mice were fed a standard diet after weaning, and exposed to 3 pulses of therapeutic dose antibiotics (Amoxicillin or Tylosin), or no antibiotics, via their drinking water, all before 6 weeks of age. Mice were sacrificed at 6 weeks of age.
# The distal ileum (1 cm) without Peyer's Patches was collected from each mouse for RNA extraction and kept in RNAlater (Ambion) overnight at 4° C. Samples were stored at −80° C. until RNA extraction was performed.
# Panel A: Mice were exposed to 3 pulses of antibiotics (Amoxicillin or Tylosin), or no antibiotics, via breast milk or drinking water at the indicated time points. Panel B: Male mice, including 5 Control, 4 Amoxicillin, and 6 Tylosin, were fed a normal diet. They were sacrificed at 6 weeks of age and the terminal[1 cm] ileum without Peyer's Patches [TI-] was collected.
# Ileal expression of T-bet and IFN-γ [Th1], GATA3 and IL-4 [Th2], Foxp3, and TGFβ1 [Treg], and RORγt, IL-17A, and IL-17F [Th17] (Control n=5, Amoxicillin n=4, Tylosin n=6) was quantitated with qPCR and normalized by GAPDH expression. Expression of T-bet and IFNγ [Th1] (p<0.05) and IL-17A and IL-17F [Th17] […] Foxp3 and RORγt were lower in Tylosin than control. This example extends the earlier observation that continuous antibiotics affect ileal immune cell populations and effectors by showing that pulses are sufficient to produce similar effects.
# [3] = asthma; cited from earlier work
SMILES,"reproducibly regulated genes out of ~45,000 genes of the mouse genome (terminal ileum [1])",ileal expression of IFNγ [Th1] (terminal ileum [2]),ileal expression of IL-17A [Th17] (terminal ileum [2]),ileal expression of IL-17F [Th17] (terminal ileum [2]),ileal expression of T-bet [Th1] (terminal ileum [2]),airway hyperresponsives (AHR) [3],neutrophilic inflammation [3]
CC1(C)S[C@@H]2[C@H](NC(=O)[C@H](N)c3ccc(O)cc3)C(=O)N2[C@H]1C(=O)O [Amoxicillin],1127,significantly lower,significantly lower,significantly lower,significantly lower,,
CC[C@H]1OC(=O)[C@H](C)[C@@H](O[C@H]2C[C@@](C)(OC)[C@@H](O)[C@H](C)O2)[C@H](C)[C@@H](O[C@@H]2O[C@H](C)C[C@H](N(C)C)[C@H]2O)[C@](C)(OC)C[C@@H](C)C(=O)[C@H](C)[C@@H](O)[C@]1(C)O [clarithromycin],,,,,,reduced,reduced
